Where a name gives a salt, the structure may show the parent alone.
molecular target: T1, NLRP3 (Homo sapiens, UniProt Q96P20); experiment: THP-1 Cells Pyroptosis Assay; type: cell-based; conditions: THP-1 cells with 1.0 μg/ml LPS; compound 3 hours; nigericin 5 μM 1 hr; resazurin readout
T1 construct: Seed THP-1 cells (25,000 cells/well) containing 1.0 μg/ml LPS in 40 μl of RPMI medium; host or cells: THP-1 cells
Outline: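 THP-1 cells in serum-free RPMI primed with LPS (1 μg/ml FAC), incubated with compound 3 h at 37 °C, then nigericin (5 μM FAC) for 1 h. Supernatant removed after spin; viability read by resazurin (100 μM FAC) reduction after a further 1-2 h at 37 °C.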

T1 sequence (Q96P20 whole entry): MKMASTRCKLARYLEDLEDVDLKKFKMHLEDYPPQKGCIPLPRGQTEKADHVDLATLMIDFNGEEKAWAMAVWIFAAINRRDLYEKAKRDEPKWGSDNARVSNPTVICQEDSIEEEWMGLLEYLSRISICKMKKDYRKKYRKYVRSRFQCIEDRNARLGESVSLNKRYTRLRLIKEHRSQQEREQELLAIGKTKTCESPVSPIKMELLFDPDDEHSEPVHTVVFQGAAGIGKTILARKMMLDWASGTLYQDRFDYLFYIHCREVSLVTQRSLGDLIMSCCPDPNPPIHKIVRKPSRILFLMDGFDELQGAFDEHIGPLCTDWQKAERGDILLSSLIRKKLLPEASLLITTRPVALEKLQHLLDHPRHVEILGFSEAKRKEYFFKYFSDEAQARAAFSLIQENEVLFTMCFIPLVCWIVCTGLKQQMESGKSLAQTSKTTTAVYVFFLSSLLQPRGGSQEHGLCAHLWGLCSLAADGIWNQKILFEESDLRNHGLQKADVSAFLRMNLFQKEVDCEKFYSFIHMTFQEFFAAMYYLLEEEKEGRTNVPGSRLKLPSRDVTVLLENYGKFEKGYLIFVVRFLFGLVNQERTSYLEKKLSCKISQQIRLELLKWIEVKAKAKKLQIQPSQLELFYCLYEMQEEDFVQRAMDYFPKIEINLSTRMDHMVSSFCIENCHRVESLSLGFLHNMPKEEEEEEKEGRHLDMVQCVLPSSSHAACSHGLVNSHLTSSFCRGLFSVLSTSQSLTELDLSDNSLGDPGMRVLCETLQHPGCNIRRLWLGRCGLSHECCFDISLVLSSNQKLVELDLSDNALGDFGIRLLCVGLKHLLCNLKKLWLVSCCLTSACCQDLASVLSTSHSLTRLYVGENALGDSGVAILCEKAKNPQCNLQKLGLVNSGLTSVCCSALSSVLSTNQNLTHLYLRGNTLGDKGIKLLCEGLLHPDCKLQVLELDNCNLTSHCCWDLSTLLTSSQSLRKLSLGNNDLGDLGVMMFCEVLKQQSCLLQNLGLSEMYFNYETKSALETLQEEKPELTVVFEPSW

First: Cc1cc(C(F)(F)F)cc(O)c1-c1ccc2oc(NC34CCC(CC3)N(C)C4)nc2n1 [Example 120, 3-Methyl-2-[2-[(2-methyl-2-azabicyclo[2.2.2]octan-4-yl)amino]oxazolo[4,5-b]pyridin-5-yl]-5-(trifluoromethyl)phenol]
Second: Cc1cc(Cl)cc(O)c1-c1ccc2oc(N[C@@H]3CCCN(CCCO)C3)nc2n1 [Example 95, 5-Chloro-2-[2-[[(3R)-1-(3-hydroxypropyl)-3-piperidyl]amino]oxazolo[4,5-b]pyridin-5-yl]-3-methyl-phenol]
The IC50 of the first is 9.6-fold higher: 108 nM for the first, 11.2 nM for the second.

Cc1cc(Cl)cc(O)c1-c1ccc2oc(N[C@@H]3CCCN(CCO)C3)nc2n1 [Example 93, 5-Chloro-2-[2-[[(3R)-1-(2-hydroxyethyl)-3-piperidyl]amino]oxazolo[4,5-b]pyridin-5-yl]-3-methyl-phenol] and CCN1CCCC(Nc2nc3nc(-c4c(O)cc(Cl)cc4COC)ccc3o2)C1 [Example 24, 5-Chloro-2-[2-[[(3R)-1-ethyl-3-piperidyl]amino]oxazolo[4,5-b]pyridin-5-yl]-3-(methoxymethyl)phenol;2,2,2-trifluoroacetic acid salt] are within 1.5-fold of each other in IC50: 2.1 nM for the first, 1.7 nM for the second.

Going from CCN1CCCC(c2nc3nc(-c4c(C)cc(C(F)(F)F)cc4O)ccc3o2)C1 (stereo not drawn) [Example 138, 2-[2-(1-Ethyl-3-piperidyl)oxazolo[4,5-b]pyridin-5-yl]-3-methyl-5-(trifluoromethyl)phenol] to “5-Chloro-2-[2-[[(3R)-1-ethyl-3-piperidyl]amino]oxazolo[4,5-b]pyridin-5-yl]-3-(trifluoromethoxy)phenol;2,2,2-trifluoroacetic acid [Example 114]”, the IC50 falls from 234 nM to 1.1 nM (210-fold).

First: CCN1C[C@@H](O)C[C@@H](Nc2nc3nc(-c4c(C)cc(C(F)(F)F)cc4O)ccc3o2)C1 [Example 51, (3S,5R)-1-Ethyl-5-[[5-[2-hydroxy-6-methyl-4-(trifluoromethyl)phenyl]oxazolo[4,5-b]pyridin-2-yl]amino]piperidin-3-ol]
Second: Cc1cc(C(F)F)cc(O)c1-c1ccc2oc(N[C@@H]3CCCN(C)C3)nc2n1 [Example 121, 5-(Difluoromethyl)-3-methyl-2-[2-[[(3R)-1-methyl-3-piperidyl]amino]oxazolo[4,5-b]pyridin-5-yl]phenol]
The IC50 of the first is 1.5-fold lower: 1.8 nM for the first, 2.7 nM for the second. The first is the more potent here.

Going from Cc1cc(C(F)(F)F)cc(O)c1-c1ccc2oc(N3CCCC(CO)C3)nc2n1 (stereo not drawn) [Example 77, 2-[2-[3-(Hydroxymethyl)-1-piperidyl]oxazolo[4,5-b]pyridin-5-yl]-3-methyl-5-(trifluoromethyl)phenol] to Cc1cc(C(F)(F)F)cc(O)c1-c1ccc2oc(C3CCC(=O)NC3)nc2n1 (racemic) [Example 9, (rac)-5-(5-(2-Hydroxy-6-methyl-4-(trifluoromethyl)phenyl)oxazolo[4,5-b]pyridin-2-yl) piperidin-2-one], the IC50 falls from 135 nM to 15.3 nM (8.8-fold). The second is the more potent here.

Cc1cc(Cl)cc(O)c1-c1ccc2oc(N[C@@H]3CCCN(CC(C)O)C3)nc2n1 (stereo partly drawn) [Example 97, 5-Chloro-3-methyl-2-[2-[[(3R)-1-(2-hydroxypropyl)-3-piperidyl]amino]oxazolo[4,5-b]pyridin-5-yl]phenol] and CCN1CC2OCCN(c3nc4nc(-c5c(C)cc(C#N)cc5O)ccc4o3)C2C1 [Example 80, 3-Hydroxy-5-methyl-4-[2-[rel-(4aS,7aR)-6-ethyl-2,3,4a,5,7,7a-hexahydropyrrolo[3,4-b][1,4]oxazin-4-yl]oxazolo[4,5-b]pyridin-5-yl]benzonitrile] are within 1.5-fold of each other in IC50: 93.9 nM for the first, 110 nM for the second.

Compared with Cc1cc(Cl)cc(O)c1-c1ccc2oc(N3CCOC4CCN(C)CC43)nc2n1 (stereo not drawn) [Example 42, 5-Chloro-3-methyl-2-[2-(6-methyl-3,4a,5,7,8,8a-hexahydro-2H-pyrido[4,3-b][1,4]oxazin-4-yl)oxazolo[4,5-b]pyridin-5-yl]phenol], CCN1C[C@H](O)C[C@@H](Nc2nc3nc(-c4c(C)cc(C#N)cc4O)ccc3o2)C1 [Example 71, 4-[2-[[(3R,5R)-1-Ethyl-5-hydroxy-3-piperidyl]amino]oxazolo[4,5-b]pyridin-5-yl]-3-hydroxy-5-methyl-benzonitrile] is 4.6-fold lower in IC50: 5.1 nM for the first, 1.1 nM for the second.

Going from Cc1cc(C(F)(F)F)cc(O)c1-c1ccc2oc(N3CC4COCC4C3)nc2n1 (stereo not drawn) [Example 62, 2-[2-(1,3,3a,4,6,6a-Hexahydrofuro[3,4-c]pyrrol-5-yl)oxazolo[4,5-b]pyridin-5-yl]-3-methyl-5-(trifluoromethyl)phenol] to CCN1CCC[C@@H](Nc2nc3nc(-c4c(C)cc(C#N)cc4O)ccc3o2)C1 [Example 25, 4-[2-[[(3R)-1-Ethyl-3-piperidyl]amino]oxazolo[4,5-b]pyridin-5-yl]-3-hydroxy-5-methyl-benzonitrile], the IC50 falls from 84.8 nM to 1.6 nM (53-fold).

Compared with CCN1C[C@@H](O)C[C@@H](Nc2nc3nc(-c4c(C)cc(C#N)cc4O)ccc3o2)C1 [Example 28, 4-[2-[[(3R,5S)-1-Ethyl-5-hydroxy-3-piperidyl]amino]oxazolo[4,5-b]pyridin-5-yl]-3-hydroxy-5-methyl-benzonitrile;formic acid salt], CCN1CCC2CCN(c3nc4nc(-c5c(C)cc(C#N)cc5O)ccc4o3)C2C1 (single isomer, unassigned) [Example 72B, 4-[2-[(3aR,7aS)-6-ethyl-3,3a,4,5,7,7a-hexahydro-2H-pyrrolo[2,3-c]pyridin-1-yl]oxazolo[4,5-b]pyridin-5-yl]-3-hydroxy-5-methyl-benzonitrile or 4-[2-[(3aS,7aR)-6-Ethyl-3,3a,4,5,7,7a-hexahydro-2H-pyrrolo[2,3-c]pyridin-1-yl]oxazolo[4,5-b]pyridin-5-yl]-3-hydroxy-5-methyl-benzonitrile] is 67-fold higher in IC50: 4.6 nM for the first, 310 nM for the second. The first is the more potent here.

Going from CCCN1CCC[C@@H](Nc2nc3nc(-c4c(C)cc(Cl)cc4O)ccc3o2)C1 [Example 46, 5-Chloro-3-methyl-2-[2-[[(3R)-1-propyl-3-piperidyl]amino]oxazolo[4,5-b]pyridin-5-yl]phenol] to CCN1CCC[C@@H](Nc2nc3nc(-c4ccc(Cl)cc4O)c(Cl)cc3o2)C1 [Example 127, 5-Chloro-2-[6-Chloro-2-[[(3R)-1-ethyl-3-piperidyl]amino]oxazolo[4,5-b]pyridin-5-yl]phenol], the IC50 rises from 1 nM to 20.6 nM (21-fold).

First: Cc1cc(Cl)cc(O)c1-c1ccc2oc(NCc3ncc[nH]3)nc2n1 [Example 76, 5-Chloro-2-[2-(1H-imidazol-2-ylmethylamino)oxazolo[4,5-b]pyridin-5-yl]-3-methyl-phenol]
Second: Cc1cc(C#N)cc(O)c1-c1ccc2oc(N3CCCC4CCN(C)CC43)nc2n1 (stereo not drawn) [Example 81, 3-Hydroxy-5-methyl-4-[2-(7-methyl-2,3,4,4a,5,6,8,8a-octahydro-1,7-naphthyridin-1-yl)oxazolo[4,5-b]pyridin-5-yl]benzonitrile]
The IC50 of the first is 2-fold higher: 143 nM for the first, 72.3 nM for the second. The second is the more potent here.

First: Cc1cc(C)c(-c2ccc3oc(N[C@@H]4CCCN(C)C4)nc3n2)c(O)c1 [Example 128, 3,5-Dimethyl-2-[2-[[(3R)-1-methyl-3-piperidyl]amino]oxazolo[4,5-b]pyridin-5-yl]phenol;2,2,2-trifluoroacetic acid]
Second: CCN1CCC[C@@H](Nc2nc3nc(-c4ccc5c(c4O)CCO5)c(C)cc3o2)C1 [Example 35, 5-[2-[[(3R)-1-Ethyl-3-piperidyl]amino]-6-methyl-oxazolo[4,5-b]pyridin-5-yl]-2,3-dihydrobenzofuran-4-ol]
The IC50 of the first is 15-fold lower: 1.8 nM for the first, 27.3 nM for the second. The first is the more potent here.

Reference: patent US20240279237A1, “FUSED BICYCLIC HETEROARYL COMPOUNDS USEFUL AS NLRP3 INHIBITORS” (Hoffmann-La Roche Inc., priority 2021, published 2024)
